Read-outs that look alike come from different tables or passages of the source.
Assay: In vitro transdermal delivery of the drug from the diffusion matrix through human cadaver skin epidermis into Ringer solution
Excerpt: Es wurde von uns eine Diffusionsmatrix "in vitro" untersucht, die auf der Grundlage der erfindungsgemäßen Zusammensetzung hergestellt wurde.
So wird, beispielsweise, auf eine Adhäsionsschicht einer Diffusionsmatrix mit runder Form und einem Radius von 1 cm (Fläche 3,14 cm²), die auf der Grundlage einer Zusammensetzung hergestellt wird, die 26,7 g Propranolol, 40 g Polyäthylenglykol mit einer Molekularmasse von 400 und 100 g Polyvinylpyrrolidon enthält, ein Probestück aus der Epidermis der Leichenhaut eines Menschen (mit der Außenoberfläche der Epidermis an die Diffusionsmatrix) aufgeklebt. Das Laminat der Diffusionsmatrix mit der Hautepidermis taucht man in die in einem Magnetrührer zu vermischende Ringer-Lösung ein. In den vorgegebenen Zeitabständen nimmt man aus der Lösung Proben ab, in denen man den Gehalt an Propranolol mit Hilfe der Spektrofluorometrie ermittelt, wobei die vorher aufgebauten Eichkurven genutzt werden.

| SMILES | Geschwindigkeit des transdermalen Eintritts des Arzneistoffes aus der Matrix (drug contained in the named matrix, through cadaver skin) | Geschwindigkeit der transdermalen Zuführung aus einer Matrix, die einen Füllstoff enthält | Geschwindigkeit des transdermalen Eintritts des Arzneistoffes aus der Matrix |
| --- | --- | --- | --- |
| O=[N+]([O-])OCC(CO[N+](=O)[O-])O[N+](=O)[O-] [Nitroglyzerin] | 39 µg/cm².h |  |  |
| CC(C)NCC(O)COc1cccc2ccccc12 (stereo not drawn) [Propranolol] |  | 55 µg/cm².h | 47 µg/cm².h |

Reference: patent EP0340307A1, “COMPOSITION OF POLYMER DIFFUSION MATRIX FOR TRANSDERMALLY INTRODUCING PHARMACEUTICAL SUBSTANCES” (priority 1987, dated 1989)
